Assay results reported in the supplement of paper PMC10307832.

Experiments:
Assay in all cases: relative viability (nuclei count vs DMSO), 5 days (fraction); higher = more cells survive
Seliciclib + Bortezomib = compound: CC[C@H](CO)Nc1nc(NCc2ccccc2)c2ncn(C(C)C)c2n1 [Seliciclib] + CC(C)C[C@H](NC(=O)[C@H](Cc1ccccc1)NC(=O)c1cnccn1)B(O)O [Bortezomib] (partner 0.002 µM)
How it was run: (§1)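 Each reported value is a median over duplicate plates. It expresses relative viability: treated-well nuclei count divided by vehicle-well nuclei count. Lung cancer cell lines in 1536-well plates were dosed by pin tool a day after seeding, alone with one drug or with a fixed anchor-drug dose plus five library-drug doses (not always all listed) in √10 steps, and nuclei were counted after 5 days.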

Seliciclib + Navitoclax = compound: CC[C@H](CO)Nc1nc(NCc2ccccc2)c2ncn(C(C)C)c2n1 [Seliciclib] + CC1(C)CCC(c2ccc(Cl)cc2)=C(CN2CCN(c3ccc(C(=O)NS(=O)(=O)c4ccc(N[C@H](CCN5CCOCC5)CSc5ccccc5)c(S(=O)(=O)C(F)(F)F)c4)cc3)CC2)C1 [Navitoclax] (partner 0.5 µM)
How it was run: as §1

Seliciclib + Luminespib = compound: CC[C@H](CO)Nc1nc(NCc2ccccc2)c2ncn(C(C)C)c2n1 [Seliciclib] + CCNC(=O)c1noc(-c2cc(C(C)C)c(O)cc2O)c1-c1ccc(CN2CCOCC2)cc1 [Luminespib] (partner 0.01 µM)
How it was run: as §1

Seliciclib + Dasatinib = compound: CC[C@H](CO)Nc1nc(NCc2ccccc2)c2ncn(C(C)C)c2n1 [Seliciclib] + Cc1nc(Nc2ncc(C(=O)Nc3c(C)cccc3Cl)s2)cc(N2CCN(CCO)CC2)n1 [Dasatinib] (partner 0.075 µM)
How it was run: as §1

Cell Line	relative viability (Seliciclib + Bortezomib; first compound 0.08 µM)	relative viability (Seliciclib + Bortezomib; first compound 0.253 µM)	relative viability (Seliciclib + Bortezomib; first compound 0.8 µM)	relative viability (Seliciclib + Bortezomib; first compound 2.53 µM)	relative viability (Seliciclib + Bortezomib; first compound 8 µM)	relative viability (Seliciclib + Navitoclax; first compound 0.08 µM)	relative viability (Seliciclib + Navitoclax; first compound 0.253 µM)	relative viability (Seliciclib + Navitoclax; first compound 0.8 µM)	relative viability (Seliciclib + Navitoclax; first compound 2.53 µM)	relative viability (Seliciclib + Navitoclax; first compound 8 µM)	relative viability (Seliciclib + Luminespib; first compound 0.08 µM)	relative viability (Seliciclib + Luminespib; first compound 0.253 µM)	relative viability (Seliciclib + Luminespib; first compound 0.8 µM)	relative viability (Seliciclib + Luminespib; first compound 2.53 µM)	relative viability (Seliciclib + Luminespib; first compound 8 µM)	relative viability (Seliciclib + Dasatinib; first compound 0.08 µM)	relative viability (Seliciclib + Dasatinib; first compound 0.253 µM)	relative viability (Seliciclib + Dasatinib; first compound 0.8 µM)	relative viability (Seliciclib + Dasatinib; first compound 2.53 µM)	relative viability (Seliciclib + Dasatinib; first compound 8 µM)
201T	1.12	1.18	1.07	1.1	1.01	1.18	1.17	1.2	1.2	1.13	1.02	1.1	0.976	0.999	1.03	0.502	0.654	0.589	0.385	0.548
A-427	0.975	0.944	1.04	0.925	0.916	1.01	0.95	0.809	0.946	0.95	0.905	0.744	0.926	0.873	0.902	0.612	0.691	0.687	0.735	0.738
ABC-1	0.318	0.312	0.296	0.274	0.339						0.447	0.753	0.478	0.378	0.396	0.536	0.566	0.598	0.524	0.509
BEN	0.871		0.82	0.701	0.659	0.0594		0.0808	0.213	0.0793	0.344	0.439	0.662	0.259	0.251	0.311	0.313	0.375	0.271	0.322
CAL-12T	0.936	1.36	0.888	0.785	0.567	1.25		1.04	1.03	1.06	0.351	0.411	0.363	0.388	0.313	0.501	0.738	0.362	0.23	0.284
COR-L23	1.01	1.1	0.962	1.06	0.751	0.906	1.1	0.867	1.06	0.733	0.658	0.67	0.579	0.871	0.556	0.457	0.644	0.484	0.342	0.383
COR-L 105	0.876	0.961	0.676	0.535	0.774	0.86	0.624	0.597	0.763	0.684	1.07	0.428	0.817	0.859	0.532	0.377	0.405	0.324	0.311	0.37
Calu-6	0.969	0.938	1.12	1.01	0.989	0.796	0.933	0.939	0.895	0.825										
ChaGo-K-1	0.914	0.517	0.947	0.83	0.454	1.03	0.567	0.949	0.755	0.431	0.587	0.362	0.711	0.536	0.603	0.588	0.637	0.661	0.478	0.495
